Here are results for 28 compounds from patent US10428063B2 (Bayer Pharma Aktiengesellschaft, priority 2015, dated 2019).

The target in this experiment is catalytic domain of human Bub1 (amino acids 704-1085) (Homo sapiens (Human), UniProt O43683). The experiment can be described thus: Bub1 kinase assay (TR-FRET). The settings on record: 10 μM ATP, 1 μM peptide substrate, recombinant catalytic domain of human Bub1, read-out: Bub1 kinase assay median IC50. The class given is biochemical. An excerpt: Bub1-inhibitory activities of compounds described in the present invention were quantified using a time-resolved fluorescence energy transfer (TR-FRET) kinase assay which measures phosphorylation of the synthetic peptide Biotin-Ahx-VLLPKKSFAEPG (C-terminus in amide form), purchased from e.g. Biosyntan (Berlin, Germany) by the (recombinant) catalytic domain of human Bub1 (amino acids 704-1085), expressed in Hi5 insect cells with an N-terminal His6-tag and purified by affinity- (Ni-NTA) and size exclusion chromatography.
In a typical assay 11 different concentrations of each compound (0.1 nM, 0.33 nM, 1.1 nM, 3.8 nM, 13 nM, 44 nM, 0.15 μM, 0.51 μM, 1.7 μM, 5.9 μM and 20 μM) were tested in duplicate within the same microtiter plate. To this end, 100-fold concentrated compound solutions (in DMSO) were previously prepared by serial dilution (1:3.4) of 2 mM stocks in a clear low volume 384-well source microtiter plate (Greiner Bio-One, Frickenhausen, Germany), from which 50 nl of compounds were transferred into a black low volume test microtiter plate from the same supplier. Subsequently, 2 μl of Bub1 (the final concentration of Bub1 was adjusted depending on the activity of the enzyme lot in order to be within the linear dynamic range of the assay: typically ˜200 ng/ml were used) in aqueous assay buffer [50 mM Tris/HCl pH 7.5, 10 mM magnesium chloride (MgCl2), 200 mM potassium chloride (KCl), 1.0 mM dithiothreitol (DTT), 0.1 mM sodium ortho-vanadate, 1% (v/v) glycerol, 0.01% (w/v) bovine serum albumine (BSA), 0.005% (v/v) Trition X-100 (Sigma), 1× Complete EDTA-free protease inhibitor mixture (Roche)] were added to the compounds in the test plate and the mixture was incubated for 15 min at 22° C. to allow pre-equilibration of the putative enzyme-inhibitor complexes before the start of the kinase reaction, which was initiated by the addition of 3 μl 1.67-fold concentrated solution (in assay buffer) of adenosine-tri-phosphate (ATP, 10 μM final concentration) and peptide substrate (1 μM final concentration). The resulting mixture (5 μl final volume) was incubated at 22° C. during 60 min., and the reaction was stopped by the addition of 5 μl of an aqueous EDTA-solution (50 mM EDTA, in 100 mM HEPES pH 7.5 and 0.2% (w/v) bovine serum albumin) which also contained the TR-FRET detection reagents (0.2 μM streptavidin-XL665 [Cisbio Bioassays, Codolet, France] and 1 nM anti-phosho-Serine antibody [Merck Millipore, cat. #35-002] and 0.4 nM LANCE EU-W1024 labeled anti-mouse IgG antibody [Perkin-Elmer, product no. AD0077, alternatively a Terbium-cryptate-labeled anti-mouse IgG antibody from Cisbio Bioassays can be used]). The stopped reaction mixture was further incubated 1 h at 22° C. in order to allow the formation of complexes between peptides and detection reagents. Subsequently, the amount of product was evaluated by measurement of the resonance energy transfer from the Eu-chelate-antibody complex recognizing the Phosphoserine residue to the streptavidin-XL665 bound to the biotin moiety of the peptide. To this end, the fluorescence emissions at 620 nm and 665 nm after excitation at 330-350 nm were measured in a TR-FRET plate reader, e.g. a Rubystar or Pherastar (both from BMG Labtechnologies, Offenburg, Germany) or a Viewlux (Perkin-Elmer) and the ratio of the emissions (665 nm/622 nm) was taken as indicator for the amount of phosphorylated substrate. The data were normalised using two sets of control wells for high- (=enzyme reaction without inhibitor=0%=Minimum inhibition) and low- (=all assay components without enzyme=100%=Maximum inhibition) Bub1 activity. IC50 values were calculated by fitting the normalized inhibition data to a 4-parameter logistic equation (Minimum, Maximum, IC50, Hill; Y=Max+(Min−Max)/(1+(X/IC50)Hill)).
For orientation: Time-resolved FRET reads energy transfer from a long-lived donor to a nearby acceptor.

pIC50: −log10 of the molar value.

Chain of catalytic domain of human Bub1 (amino acids 704-1085) (O43683 704-1085): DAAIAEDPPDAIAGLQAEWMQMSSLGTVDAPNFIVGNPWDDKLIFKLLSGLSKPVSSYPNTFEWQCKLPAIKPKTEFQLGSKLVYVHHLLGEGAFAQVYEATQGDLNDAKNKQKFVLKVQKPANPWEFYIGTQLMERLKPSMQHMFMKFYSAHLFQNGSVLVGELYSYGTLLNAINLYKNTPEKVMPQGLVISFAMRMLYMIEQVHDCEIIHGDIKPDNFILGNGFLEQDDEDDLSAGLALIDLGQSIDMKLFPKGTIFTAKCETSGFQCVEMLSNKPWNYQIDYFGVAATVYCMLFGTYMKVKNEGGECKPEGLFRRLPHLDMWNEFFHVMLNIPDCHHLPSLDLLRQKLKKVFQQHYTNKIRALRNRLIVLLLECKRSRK

On to `CN1CCc2[nH]c(-c3ccnc(NC(=O)[C@H]4C[C@H]4F)c3)c(Nc3ccccc3)c2C1=O` (relative stereo) [Example 25, rel-(1R,2R)-2-fluoro-N-{4-[5-methyl-4-oxo-3-(phenylamino)-4,5,6,7-tetrahydro-1H-pyrrolo[3,2-c]pyridin-2-yl]pyridin-2-yl}cyclopropanecarboxamide], for which the negative-log IC50 (pIC50) (as a rule, the negative decadic logarithm of the IC50, by convention in mol/L) is 7.77.
To `CC1(C)Cc2[nH]c(-c3ccncc3)c(Nc3ccccc3)c2C(=O)N1` [Example 1, 6,6-dimethyl-3-(phenylamino)-2-(pyridin-4-yl)-1,5,6,7-tetrahydro-4H-pyrrolo[3,2-c]pyridin-4-one] belongs 7.94.
As to `O=C1NCCc2[nH]c(-c3ccncc3)c(Nc3ccccc3)c21` [Example 2, 3-(phenylamino)-2-(pyridin-4-yl)-1,5,6,7-tetrahydro-4H-pyrrolo[3,2-c]pyridin-4-one], the negative logarithm of the IC50 (pIC50) was 8.10.
As for `Cc1cnccc1-c1[nH]c2c(c1Nc1ccccc1)C(=O)NCC2` [Example 3, 2-(3-methylpyridin-4-yl)-3-(phenylamino)-1,5,6,7-tetrahydro-4H-pyrrolo[3,2-c]pyridin-4-one], the pIC50 is 6.61.
Take `CCn1c2c(c(Nc3ccccc3)c1-c1ccncc1)C(=O)NC(C)(C)C2` [Example 4, 1-ethyl-6,6-dimethyl-3-(phenylamino)-2-(pyridin-4-yl)-1,5,6,7-tetrahydro-4H-pyrrolo[3,2-c]pyridin-4-one]: the pIC50 was 7.84.
To `CCn1c2c(c(Nc3ccccc3)c1-c1ccncc1)C(=O)NCC2` [Example 5, 1-ethyl-3-(phenylamino)-2-(pyridin-4-yl)-1,5,6,7-tetrahydro-4H-pyrrolo[3,2-c]pyridin-4-one] belongs 7.45; to `CC(C)(C)OC(=O)N1CCc2[nH]c(-c3ccncc3)c(Nc3ccccc3)c2C1=O` [Example 6, tert-butyl 4-oxo-3-(phenylamino)-2-(pyridin-4-yl)-1,4,6,7-tetrahydro-5H-pyrrolo[3,2-c]pyridine-5-carboxylate], 7.96.
Then `O=C1NCCc2[nH]c(-c3ccncc3)c(Nc3ccc(F)cc3)c21` [Example 7, 3-[(4-fluorophenyl)amino]-2-(pyridin-4-yl)-1,5,6,7-tetrahydro-4H-pyrrolo[3,2-c]pyridin-4-one], with 7.70.
To `Nc1cc(-c2[nH]c3c(c2Nc2ccccc2)C(=O)NCC3)ccn1` [Example 8, 2-(2-aminopyridin-4-yl)-3-(phenylamino)-1,5,6,7-tetrahydro-4H-pyrrolo[3,2-c]pyridin-4-one] belongs 6.86.
For the compound `COCCn1c2c(c(Nc3ccccc3)c1-c1ccncc1)C(=O)NCC2` [Example 9, 1-(2-methoxyethyl)-3-(phenylamino)-2-(pyridin-4-yl)-1,5,6,7-tetrahydro-4H-pyrrolo[3,2-c]pyridin-4-one], the negative-log IC50 (pIC50) is 6.45.
Then `CC(C)C(=O)Nc1cc(-c2[nH]c3c(c2Nc2ccccc2)C(=O)N(C(=O)C(C)C)CC3)ccn1` [Example 10, 2-methyl-N-{4-[5-(2-methylpropanoyl)-4-oxo-3-(phenylamino)-4,5,6,7-tetrahydro-1H-pyrrolo[3,2-c]pyridin-2-yl]pyridin-2-yl}propanamide], with 6.50; and `CCn1c2c(c(Nc3ccc(F)cc3)c1-c1ccncc1)C(=O)NCC2` [Example 11, 1-ethyl-3-[(4-fluorophenyl)amino]-2-(pyridin-4-yl)-1,5,6,7-tetrahydro-4H-pyrrolo[3,2-c]pyridin-4-one], with 7.19; and `Cc1cc(-c2[nH]c3c(c2Nc2ccccc2)C(=O)NCC3)ccn1` [Example 12, 2-(2-methylpyridin-4-yl)-3-(phenylamino)-1,5,6,7-tetrahydro-4H-pyrrolo[3,2-c]pyridin-4-one], with 7.81.
Then `CCn1c2c(c(Nc3ccccc3)c1-c1ccnc(C)c1)C(=O)NCC2` [Example 13, 1-ethyl-2-(2-methylpyridin-4-yl)-3-(phenylamino)-1,5,6,7-tetrahydro-4H-pyrrolo[3,2-c]pyridin-4-one], with 6.01.
Then `CC(=O)Nc1cc(-c2[nH]c3c(c2Nc2ccccc2)C(=O)NCC3)ccn1` [Example 14], with 7.74; and `CCn1c2c(c(Nc3ccccc3)c1-c1ccnc(NC(C)=O)c1)C(=O)NCC2` [Example 15, N-{4-[1-ethyl-4-oxo-3-(phenylamino)-4,5,6,7-tetrahydro-1H-pyrrolo[3,2-c]pyridin-2-yl]pyridin-2-yl}acetamide], with 7.10; and `O=c1[nH]ccc2[nH]c(-c3ccncc3F)c(Nc3ccccc3)c12` [Example 16, 2-(3-fluoropyridin-4-yl)-3-(phenylamino)-1,5-dihydro-4H-pyrrolo[3,2-c]pyridin-4-one], with 7.72.
As for `CN1CCc2[nH]c(-c3ccncc3F)c(Nc3ccccc3)c2C1=O` [Example 17, 2-(3-fluoropyridin-4-yl)-5-methyl-3-(phenylamino)-1,5,6,7-tetrahydro-4H-pyrrolo[3,2-c]pyridin-4-one], the negative-log IC50 (pIC50) was 8.06.
For the compound `O=C1NCCc2[nH]c(-c3ccncc3F)c(Nc3ccccc3)c21` [Example 18, 2-(3-fluoropyridin-4-yl)-3-(phenylamino)-1,5,6,7-tetrahydro-4H-pyrrolo[3,2-c]pyridin-4-one], the pIC50 is 7.94.
To `CCNC(=O)Nc1cc(-c2[nH]c3c(c2Nc2ccccc2)C(=O)NCC3)ccn1` [Example 19, 1-ethyl-3-{4-[4-oxo-3-(phenylamino)-4,5,6,7-tetrahydro-1H-pyrrolo[3,2-c]pyridin-2-yl]pyridin-2-yl}urea] belongs 7.71; to `CN1CCc2[nH]c(-c3ccncc3)c(Nc3ccccc3)c2C1=O` [Example 20, 5-methyl-3-(phenylamino)-2-(pyridin-4-yl)-1,5,6,7-tetrahydro-4H-pyrrolo[3,2-c]pyridin-4-one], 7.87; to `CN1CCc2[nH]c(-c3ccnc(N)c3)c(Nc3ccccc3)c2C1=O` [Example 21, 2-(2-aminopyridin-4-yl)-5-methyl-3-(phenylamino)-1,5,6,7-tetrahydro-4H-pyrrolo[3,2-c]pyridin-4-one], 6.77.
For `COc1cnccc1-c1[nH]c2c(c1Nc1ccccc1)C(=O)N(C)CC2` [Example 22, 2-(3-methoxypyridin-4-yl)-5-methyl-3-(phenylamino)-1,5,6,7-tetrahydro-4H-pyrrolo[3,2-c]pyridin-4-one], the pIC50 was 7.57.
To `CC(=O)Nc1cc(-c2[nH]c3c(c2Nc2ccccc2)C(=O)N(C)CC3)ccn1` [Example 23] belongs 7.63; to `CN1CCc2[nH]c(-c3ccnc(NC(=O)C4CC4)c3)c(Nc3ccccc3)c2C1=O` [Example 24], 7.82; to `CN1CCc2[nH]c(-c3ccncc3OCCO)c(Nc3ccccc3)c2C1=O` [Example 26, 2-[3-(2-hydroxyethoxy)pyridin-4-yl]-5-methyl-3-(phenylamino)-1,5,6,7-tetrahydro-4H-pyrrolo[3,2-c]pyridin-4-one], 7.32.
Take `CN1CCc2[nH]c(-c3ccncc3OCC3CC3)c(Nc3ccccc3)c2C1=O` [Example 27, 2-[3-(cyclopropylmethoxy)pyridin-4-yl]-5-methyl-3-(phenylamino)-1,5,6,7-tetrahydro-4H-pyrrolo[3,2-c]pyridin-4-one]: the pIC50 was 7.66.
Then `CCCOc1cnccc1-c1[nH]c2c(c1Nc1ccccc1)C(=O)N(C)CC2` [Example 28, 5-methyl-3-(phenylamino)-2-(3-propoxypyridin-4-yl)-1,5,6,7-tetrahydro-4H-pyrrolo[3,2-c]pyridin-4-one], with 7.29.
